Our source for the IC50 and CI values is ChEMBL document CHEMBL5244250, “Natural sesquiterpenoid oligomers: A chemical perspective” (Eur J Med Chem, 2020).

Assay [1] concerns RAW264.7. Briefly: Anti-inflammatory activity in LPS induced mouse RAW264.7 cells assessed as inhibition of NO production. Format: functional, cell-based.
For assay [2], the system named is U2OS. Put plainly: Synergistic cytotoxicity in human U2OS cells assessed as combination index in presence of doxorubicin. The assay is classed as functional.

SMILES strings stand for the structures. Values after ≈ are worked out from the molar mass of the structure shown.

Usually IC50 stands for the midpoint of a concentration-inhibition curve. `C=C1C(=O)O[C@@H]2[C@@H]3[C@@H](C[C@@]4(O)[C@]3(O)CC[C@]43C(=O)C[C@H]4C(=C)CC[C@H]5C(=C)C(=O)O[C@@H]5[C@H]43)C(=C)CC[C@@H]12`: in assay [1], the IC50 amounted to 2.41 µg/mL (≈ 4.76 µM). Take `COC(=O)/C(C)=C1\C(=O)[C@H](O)[C@@]2(C)[C@@H]3C[C@@H]3[C@@]34CCC5=C6C3=C(C(=O)[C@H](O)[C@@]6(C)[C@@H]3C[C@H]53)[C@](C)(C(C)=O)[C@@H]1[C@@]24O`: in assay [2], the CI was 1.12.
